pIC50: −log10 of the molar value.
Columns and labels:
HCT116 cells = assay: PAD anti-proliferation assay, HCT; type: cell-based; settings: Homo sapiens, HCT-116, 48 hours
Experimental: A549 (ATCC# CCL 185), HeLa (ATCC# CCL 2), HCT116 (ATCC# CCL-247), and H 1299 (ATCC# CRL-5803) cells were maintained in T175 flasks following the ATCC recommended media and handling procedures. Flasks reaching approximately 70% confluency were trypsinized and resuspended in RPMI media (Cell Gro catalog number 10 040 CM) modified to contain 5% FBS, 100 ug/mlPen/Strep (Cell Gro catalog number 30 002 CL), and 0.3 mg/ml L Glutamine (Cell Gro catalog number 25 003 CL). A 20,000 cells/ml solution was made for plating. Cells were plated in black Packard 96 well plates by placing 100 μl per well (2,000 cells per well).
Compounds and additional media were added 24′ hours after cell plating. A compound master plate was created with concentrations 500 times greater than the final concentration added to the cells. All compound testing was done in duplicate using 3 fold dilutions starting with 10 mM. All outside wells (and 4 internal wells) were DMSO controls. Taxol and at least one additional control were run on all plates. Three microliters of the compound master plate were added to deep well blocks containing 750 μl of RPMI media. One hundred microliters were transferred from the compound/media deep well blocks to the plated cells resulting in a 500 fold dilution of the compounds. Cells were grown at 37° C., 5% CO2 for 48 hours.
Cells to be analyzed by photography were fixed and stained. One hundred microliters of media were removed and 100 μl of 2% paraformaldehyde was added to each well. Plates were left on the benchtop for 45 minutes. A staining solution containing 1.55 μl of 1 mg/ml DAPI added to 18.75 ml PBS was warmed for 15 minutes at 37° C. The cells were aspirated prior to washing with 100 μl of PBS. Seventy microliters of PBS were aspirated and 170 μl of the DAPI solution were added to each well of fixed cells. Plates were left at room temperature for one hour then aspirated and washed twice with 100 μl of PBS. The stained cells were left at 4° C. for a minimum of 16 hours before photographic analysis with Array Scan II (Cellomics). Analysis of the photographic images to determine numbers of live cells (proliferation), apoptotic cells and dead cells, were according to the methods described in U.S. Provisional Patent Application Ser. No. 60/406,714, which incorporated herein in its entirety.

[1] = system: p53 reporter system in p53 null H1299 cell line; assay: p53-dependent transcription reporter assay, H1299RE; type: cell-based; settings: p53 −ve cell type; maximal fold induction over DMSO control
Source text: (§1) Stable lines of U2OS (osteosarcoma; Wild-type p53 positive), HCT116 (colorectal carcinoma; Wild-type p53 positive) and H1299 (lung non-small cell carcinoma; p53 null) carrying p53-dependent transcriptional regulatory element linked to a Luciferase reporter gene and H1299 carrying a 5′-regulatory region of GADD45 linked to Luciferase were used.
(§2) Day 1: Cells were re-plated into 96-well plates at suitable densities to make 50-60% confluence on Day 2. The plating densities are as follows: 7.5×10^3 cells/well (or 2.5×10^4 cells/cm^2) for U2OS; 1.5×10^4 cells/well (or 5.0×10^4 cells/cm^2) for HCT116; and 1.0×10^4 cells/well (or 3.3×10^4 cells/cm^2) for H1299.
(§3) Day 2: The compounds or control drugs were diluted in dimethyl sulfoxide (DMSO) and added to the wells to create 6-points/2-fold serial dilution (20, 10, 5, 2.5, 1.25, 0.625 and 0 μM) for each compound. The DMSO concentration was adjusted to 0.2% in all wells.
(§4) Day 3: Twenty to 24 hours after compound addition, cells were twice washed with PBS and lysed with Glo-lysis buffer (100 μl/well, Promega; Cat#E2661). Plates were subjected to gentle agitation on a table-top shaker for 5 minutes at room temperature. Fifty μl of lysate was transferred to an assay plate to test for luciferase activity and mixed with 2× assay buffer (Promega; Cat# E1483). The reaction mixture was left at room temperature for 2 minutes and then luminescence was measure by a luminometer (Victor™, 1420 Multilabel Counter, Wallac).
(§5) Data analysis was done on Excel software (Microsoft). Values in Table 4 represent maximal fold induction over negative control (DMSO only) and are the mean of at least duplicate experiments.
H1299RE is p53 null […] cell line containing p53 reporter system. Numbers indicate the selectivity of the compound with smaller number being higher selectivity.

[2] = system: GADD45 promoter (DNA damage response reporter); assay: H1299 GADD45 reporter system; type: cell-based; settings: human; p53 −ve cell type; maximal fold induction over DMSO control; read-out: Fold Induction, H1299GADD45
Source text: as §1, §2, §3, §4, §5
H1299 GADD45 Reporter System is a system in which GADD45 is induced in p53-null cells in response to DNA damage. This cell line expresses the 5′-regulatory region of the GADD45 gene. This assay provides a way to rule out the possibility of DNA damage due to the compounds.

DLD-1 cells = assay: PAD anti-proliferation assay, DLD-1; type: cell-based; settings: Homo sapiens, 48 hours
E2 (Ubch5c) = E2 (Ubch5c) (Homo sapiens, UniProt P61077); assay: E2 ligase assay, E2 auto-ubiquitination; type: biochemical; settings: Table 2
E2 (Ubch5c), sequence (P61077 whole entry): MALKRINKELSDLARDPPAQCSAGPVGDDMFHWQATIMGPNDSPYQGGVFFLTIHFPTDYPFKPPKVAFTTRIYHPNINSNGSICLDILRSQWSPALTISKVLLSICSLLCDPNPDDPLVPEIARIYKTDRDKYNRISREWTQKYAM
Experimental: E2 (Ubch5c) auto-ubiquitination was measured as described in U.S. patent application Ser. No. 09/826,312 (Publication No. US-2002-0042083-A1), which is incorporated herein in its entirety. Details of the protocol are described below. Activity in the presence of the test compound was determined relative to a parallel control in which only DMSO was added. The IC50 values were typically determined using 6 or 8 different concentrations of compound, although as few as 2 concentrations may be used to approximate IC50 values.
Corning 96-well plates (Corning 3650) were blocked with 100 μl of Blocking Buffer for 1 hour at room temperature. The plates were washed for 4 times with 225 μl of 1×PBS and 80 μl of the reaction buffer were added that contained 100 ng/well of Flag-ubiquitin. To this, 10 μl of the test compound diluted in DMSO were added. After the test compound was added, 10 μl of E1 (human) and E2 (Ubch5c) in Protein Buffer were added to obtain a final concentration of 5 ng/well of E1 and 20 ng/well of E2. The plates were shaken for 10 minutes and incubated at room temperature for 1 hour. After incubation, the reaction was stopped by adding 25 μl of loading buffer (non-reducing) per well and the plates were heated at 95° C. for 5 minutes. An aliquot of each well was run on a 10% NugePage Gel and analyzed by Western Blot using the antibody mix and Lumino substrate described below. The luminescence was measured using a BMG luminescence microplate reader.

E1 and E2 (UBCH5a) = E1 and E2 (UBCH5a) (Homo sapiens, UniProt P22314+P51668); assay: E1/E2 plate enzyme counter assay; type: biochemical; settings: Table 3, counter assay
Source text: E1/E2 is E1 and E2 (UBCH5a) enzyme counter assay.

Row | SMILES | pIC50 (HCT116 cells) | Fold Induction of p53 activity, H1299RE [1] | fold induction [2] | pIC50 (DLD-1 cells) | pIC50 (E2 (Ubch5c)) | E1/E2 plate μM (E1 and E2 (UBCH5a))
1 | O=C(c1ccc(CN(CCOc2ccccc2)c2nc(-c3ccc(Cl)c(Cl)c3)cs2)cc1)N1CCNCC1 [compound 360] | 4.70 to 6.00 | c (c means 1.5 or less) | ≤ 1.5 | 4.70 to 6.00 | ≤ 4.70 | + (+ means 20 μM or greater)
2 | COc1cccc(-c2csc(N(CCOc3ccccc3)Cc3ccc(C(=O)N4CCNCC4)cc3)n2)c1 [compound 352] |  | c (c means 1.5 or less) | ≤ 1.5 |  | ≤ 4.70 | 
3 | COc1cccc(-c2csc(N(Cc3ccc(C(=O)N4CCNCC4)cc3)Cc3cccc(OC(F)(F)F)c3)n2)c1 [compound 351] | 4.70 to 6.00 | c (c means 1.5 or less) | ≤ 1.5 |  | ≤ 4.70 | 
4 | COc1cccc(CN(Cc2ccc(C(=O)N3CCNCC3)cc2)c2nc(-c3ccc(Br)cc3)cs2)c1OC [compound 353] | 4.70 to 6.00 | c (c means 1.5 or less) | ≤ 1.5 |  | ≤ 4.70 | 
5 | O=C(c1ccc(CN(Cc2cccc(OC(F)(F)F)c2)c2nc(-c3ccccc3)cs2)cc1)N1CCNCC1 [compound 275] | 4.70 to 6.00 |  |  | 4.70 to 6.00 |  | 
6 | O=C(c1ccc(CN(Cc2cccc(OC(F)(F)F)c2)c2nc(-c3ccc4ccccc4c3)cs2)cc1)N1CCNCC1 [compound 282, 4-(2-naphthyl)-N-[4-(piperazin-1-ylcarbonyl)benzyl]-N-[3-(trifluoromethoxy)benzyl]-1,3-thiazol-2-amine] | 4.70 to 6.00 |  |  | 4.70 to 6.00 |  | 
